# Assay results: the supplement of paper PMC10307832
# How the values were obtained:
# Assay in all cases: relative viability (nuclei count vs DMSO), 5 days (fraction); higher = more cells survive
# NCI-H1792 = test system: NCI-H1792
# Summary of the method: (§1)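 Relative viability was taken as the ratio of nuclei in treated wells to nuclei in vehicle wells. Lung cancer cell lines in 1536-well plates received compounds by pin tool one day after seeding, either one drug alone or a fixed anchor-drug dose plus five library-drug doses (not always all listed) in √10 steps. Nuclei were counted on 4× images after 5 days of treatment, and values are medians of duplicate plates.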
# SW 900 = test system: SW 900
# Summary of the method: as §1
# RERF-LC-KJ = test system: RERF-LC-KJ
# Summary of the method: as §1
# LCLC-103H = test system: LCLC-103H
# Summary of the method: as §1
# NCI-H520 = test system: NCI-H520
# Summary of the method: as §1
# NCI-H2347 = test system: NCI-H2347
# Summary of the method: as §1
# NCI-H2170 = test system: NCI-H2170
# Summary of the method: as §1
# NCI-H661 = test system: NCI-H661
# Summary of the method: as §1
# LXF-289 = test system: LXF-289
# Summary of the method: as §1
# NCI-H1355 = test system: NCI-H1355
# Summary of the method: as §1
# NCI-H1651 = test system: NCI-H1651
# Summary of the method: as §1
# NCI-H1915 = test system: NCI-H1915
# Summary of the method: as §1
# NCI-H3122 = test system: NCI-H3122
# Summary of the method: as §1
# SK-MES-1 = test system: SK-MES-1
# Summary of the method: as §1
# NCI-H460 = test system: NCI-H460
# Summary of the method: as §1
# NCI-H441 = test system: NCI-H441
# Summary of the method: as §1
# NCI-H650 = test system: NCI-H650
# Summary of the method: as §1
# NCI-H1755 = test system: NCI-H1755
# Summary of the method: as §1
# PC-14 = test system: PC-14
# Summary of the method: as §1
# NCI-H322M = test system: NCI-H322M
# Summary of the method: as §1
# NCI-H727 = test system: NCI-H727
# Summary of the method: as §1
compound,measurement,setting,value
CC1(C)CCC(c2ccc(Cl)cc2)=C(CN2CCN(c3ccc(C(=O)NS(=O)(=O)c4ccc(N[C@H](CCN5CCOCC5)CSc5ccccc5)c(S(=O)(=O)C(F)(F)F)c4)cc3)CC2)C1 [Navitoclax] + CC(=O)c1c(C)c2cnc(Nc3ccc(N4CCNCC4)cn3)nc2n(C2CCCC2)c1=O [Palbociclib] (partner 0.5 µM),relative viability,NCI-H1792; first compound 0.005 µM,0.651
same,relative viability,NCI-H1792; first compound 0.01581 µM,0.661
same,relative viability,NCI-H1792; first compound 0.05 µM,0.563
same,relative viability,NCI-H1792; first compound 0.1581 µM,0.628
same,relative viability,NCI-H1792; first compound 0.5 µM,0.647
same,relative viability,SW 900; first compound 0.005 µM,0.565
same,relative viability,SW 900; first compound 0.01581 µM,0.651
same,relative viability,SW 900; first compound 0.1581 µM,0.55
same,relative viability,SW 900; first compound 0.5 µM,0.518
same,relative viability,RERF-LC-KJ; first compound 0.005 µM,1.06
same,relative viability,RERF-LC-KJ; first compound 0.01581 µM,1.01
same,relative viability,RERF-LC-KJ; first compound 0.05 µM,1.14
same,relative viability,RERF-LC-KJ; first compound 0.1581 µM,1.07
same,relative viability,RERF-LC-KJ; first compound 0.5 µM,1.01
same,relative viability,LCLC-103H; first compound 0.005 µM,0.453
same,relative viability,LCLC-103H; first compound 0.01581 µM,0.487
same,relative viability,LCLC-103H; first compound 0.05 µM,0.486
same,relative viability,LCLC-103H; first compound 0.1581 µM,0.443
same,relative viability,LCLC-103H; first compound 0.5 µM,0.418
same,relative viability,NCI-H520; first compound 0.005 µM,0.273
same,relative viability,NCI-H520; first compound 0.01581 µM,0.25
same,relative viability,NCI-H520; first compound 0.05 µM,0.18
same,relative viability,NCI-H520; first compound 0.1581 µM,0.182
same,relative viability,NCI-H520; first compound 0.5 µM,0.217
same,relative viability,NCI-H2347; first compound 0.005 µM,0.468
same,relative viability,NCI-H2347; first compound 0.01581 µM,0.48
same,relative viability,NCI-H2347; first compound 0.05 µM,0.396
same,relative viability,NCI-H2347; first compound 0.1581 µM,0.439
same,relative viability,NCI-H2347; first compound 0.5 µM,0.377
same,relative viability,NCI-H2170; first compound 0.005 µM,0.391
same,relative viability,NCI-H2170; first compound 0.01581 µM,0.382
same,relative viability,NCI-H2170; first compound 0.05 µM,0.409
same,relative viability,NCI-H2170; first compound 0.1581 µM,0.394
same,relative viability,NCI-H2170; first compound 0.5 µM,0.377
same,relative viability,NCI-H661; first compound 0.005 µM,0.426
same,relative viability,NCI-H661; first compound 0.01581 µM,0.451
same,relative viability,NCI-H661; first compound 0.05 µM,0.387
same,relative viability,NCI-H661; first compound 0.1581 µM,0.435
same,relative viability,NCI-H661; first compound 0.5 µM,0.384
same,relative viability,LXF-289; first compound 0.005 µM,0.589
same,relative viability,LXF-289; first compound 0.01581 µM,0.658
same,relative viability,LXF-289; first compound 0.05 µM,0.547
same,relative viability,LXF-289; first compound 0.1581 µM,0.606
same,relative viability,LXF-289; first compound 0.5 µM,0.627
same,relative viability,NCI-H1355; first compound 0.005 µM,0.381
same,relative viability,NCI-H1355; first compound 0.01581 µM,0.438
same,relative viability,NCI-H1355; first compound 0.05 µM,0.429
same,relative viability,NCI-H1355; first compound 0.1581 µM,0.385
same,relative viability,NCI-H1355; first compound 0.5 µM,0.409
same,relative viability,NCI-H1651; first compound 0.005 µM,0.513
same,relative viability,NCI-H1651; first compound 0.01581 µM,0.552
same,relative viability,NCI-H1651; first compound 0.05 µM,0.494
same,relative viability,NCI-H1651; first compound 0.1581 µM,0.513
same,relative viability,NCI-H1651; first compound 0.5 µM,0.54
same,relative viability,NCI-H1915; first compound 0.005 µM,0.585
same,relative viability,NCI-H1915; first compound 0.01581 µM,0.544
same,relative viability,NCI-H1915; first compound 0.05 µM,0.499
same,relative viability,NCI-H1915; first compound 0.1581 µM,0.507
same,relative viability,NCI-H1915; first compound 0.5 µM,0.509
same,relative viability,NCI-H3122; first compound 0.005 µM,0.206
same,relative viability,NCI-H3122; first compound 0.01581 µM,0.164
same,relative viability,NCI-H3122; first compound 0.05 µM,0.225
same,relative viability,NCI-H3122; first compound 0.1581 µM,0.177
same,relative viability,NCI-H3122; first compound 0.5 µM,0.182
same,relative viability,SK-MES-1; first compound 0.005 µM,0.332
same,relative viability,SK-MES-1; first compound 0.01581 µM,0.343
same,relative viability,SK-MES-1; first compound 0.05 µM,0.336
same,relative viability,SK-MES-1; first compound 0.1581 µM,0.303
same,relative viability,SK-MES-1; first compound 0.5 µM,0.385
same,relative viability,NCI-H460; first compound 0.005 µM,0.167
same,relative viability,NCI-H460; first compound 0.01581 µM,0.159
same,relative viability,NCI-H460; first compound 0.05 µM,0.0945
same,relative viability,NCI-H460; first compound 0.1581 µM,0.217
same,relative viability,NCI-H460; first compound 0.5 µM,0.13
same,relative viability,NCI-H441; first compound 0.005 µM,0.225
same,relative viability,NCI-H441; first compound 0.01581 µM,0.268
same,relative viability,NCI-H441; first compound 0.05 µM,0.192
same,relative viability,NCI-H441; first compound 0.1581 µM,0.216
same,relative viability,NCI-H441; first compound 0.5 µM,0.284
same,relative viability,NCI-H650; first compound 0.005 µM,0.326
same,relative viability,NCI-H650; first compound 0.01581 µM,0.35
same,relative viability,NCI-H650; first compound 0.05 µM,0.315
same,relative viability,NCI-H650; first compound 0.1581 µM,0.304
same,relative viability,NCI-H650; first compound 0.5 µM,0.336
same,relative viability,NCI-H1755; first compound 0.005 µM,0.433
same,relative viability,NCI-H1755; first compound 0.01581 µM,0.482
same,relative viability,NCI-H1755; first compound 0.05 µM,0.436
same,relative viability,NCI-H1755; first compound 0.1581 µM,0.477
same,relative viability,NCI-H1755; first compound 0.5 µM,0.488
same,relative viability,PC-14; first compound 0.005 µM,0.537
same,relative viability,PC-14; first compound 0.01581 µM,0.466
same,relative viability,PC-14; first compound 0.05 µM,0.607
same,relative viability,PC-14; first compound 0.1581 µM,0.528
same,relative viability,PC-14; first compound 0.5 µM,0.509
same,relative viability,NCI-H322M; first compound 0.005 µM,0.522
same,relative viability,NCI-H322M; first compound 0.01581 µM,0.534
same,relative viability,NCI-H322M; first compound 0.05 µM,0.476
same,relative viability,NCI-H322M; first compound 0.1581 µM,0.479
same,relative viability,NCI-H322M; first compound 0.5 µM,0.499
same,relative viability,NCI-H727; first compound 0.005 µM,0.625
same,relative viability,NCI-H727; first compound 0.01581 µM,0.602
same,relative viability,NCI-H727; first compound 0.05 µM,0.67
same,relative viability,NCI-H727; first compound 0.1581 µM,0.584
same,relative viability,NCI-H727; first compound 0.5 µM,0.527
